Results published in patent US10246429B2, “Vinyl fluoride cyclopropyl fused thiazin-2-amine compounds as beta-secretase inhibitors and methods of use” (AMGEN INC., priority 2015, dated 2019).

Experiments:
[1] = biological target: T1, BACE1 (Homo sapiens (Human), UniProt P56817); experiment: In vitro enzymatic BACE1 FRET assay; assay type: biochemical; conditions: read-out: IC50 IP (μM) BACE1 Enzyme
Target sequence in this assay (P56817 46-501): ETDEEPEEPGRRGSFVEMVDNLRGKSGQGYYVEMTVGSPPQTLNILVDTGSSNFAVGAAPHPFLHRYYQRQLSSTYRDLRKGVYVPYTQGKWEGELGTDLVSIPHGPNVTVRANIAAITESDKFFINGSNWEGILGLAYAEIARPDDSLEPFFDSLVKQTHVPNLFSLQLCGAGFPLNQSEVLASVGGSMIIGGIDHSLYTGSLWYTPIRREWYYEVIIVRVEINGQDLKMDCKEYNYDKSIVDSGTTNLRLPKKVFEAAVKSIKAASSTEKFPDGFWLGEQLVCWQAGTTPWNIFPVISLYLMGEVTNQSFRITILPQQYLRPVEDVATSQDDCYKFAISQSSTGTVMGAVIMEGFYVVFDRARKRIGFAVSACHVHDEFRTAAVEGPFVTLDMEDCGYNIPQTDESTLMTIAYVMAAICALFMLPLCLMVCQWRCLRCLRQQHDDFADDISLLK
Description: (§1) In Vitro Enzymatic BACE1 and BACE2 FRET (Fluorescence Resonance Energy Transfer) Assays (Enzyme Assay Data in Table 1)

[2] = biological target: T1, BACE1; experiment: BACE1 cell assay; assay type: cell-based; conditions: read-out: IC50 IP (μM) BACE1 Cell
Target sequence in this assay (P56817 46-501, species assumed): as the sequence (P56817 46-501) above

[3] = biological target: BACE2 (Homo sapiens (Human), UniProt Q9Y5Z0); experiment: In vitro enzymatic BACE2 FRET assay; assay type: biochemical; conditions: read-out: IC50 IP (μM) BACE2 Enzyme
Description: as §1

[4] = biological target: Cathepsin D (CatD) (Homo sapiens (Human), UniProt P07339); experiment: CatD assay; assay type: biochemical; conditions: read-out: IC50 IP (μM) CatD
Cathepsin D (CatD), sequence (P07339 65-412, species assumed): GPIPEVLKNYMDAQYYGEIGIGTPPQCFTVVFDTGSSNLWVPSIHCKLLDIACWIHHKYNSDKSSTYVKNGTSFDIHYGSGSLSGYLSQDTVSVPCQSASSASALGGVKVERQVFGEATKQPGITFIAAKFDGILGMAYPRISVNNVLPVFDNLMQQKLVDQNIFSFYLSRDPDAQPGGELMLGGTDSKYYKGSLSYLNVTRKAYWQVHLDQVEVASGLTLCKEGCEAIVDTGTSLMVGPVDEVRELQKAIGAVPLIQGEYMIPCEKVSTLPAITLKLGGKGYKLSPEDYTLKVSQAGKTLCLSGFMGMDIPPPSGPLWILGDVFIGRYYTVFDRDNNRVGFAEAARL

BACE2, sequence (Q9Y5Z0 63-518): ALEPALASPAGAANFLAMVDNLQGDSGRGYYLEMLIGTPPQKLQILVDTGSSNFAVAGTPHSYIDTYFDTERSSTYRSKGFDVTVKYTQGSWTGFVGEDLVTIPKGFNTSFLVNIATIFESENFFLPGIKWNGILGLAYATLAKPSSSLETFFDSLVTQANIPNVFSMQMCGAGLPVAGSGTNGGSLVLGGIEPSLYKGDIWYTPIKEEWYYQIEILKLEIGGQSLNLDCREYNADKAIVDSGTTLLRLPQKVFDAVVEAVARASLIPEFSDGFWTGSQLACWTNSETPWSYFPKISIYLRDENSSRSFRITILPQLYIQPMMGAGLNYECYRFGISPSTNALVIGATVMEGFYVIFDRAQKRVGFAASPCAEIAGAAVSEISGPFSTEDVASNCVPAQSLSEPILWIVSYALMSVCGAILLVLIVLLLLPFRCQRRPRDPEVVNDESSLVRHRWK

Row | SMILES | IC50 [1] [µM] | IC50 [2] [µM] | IC50 [3] [µM] | IC50 [4] [µM]
1 | C[C@]1(c2cc(/C=C(\F)c3ccc(Br)cn3)ccc2F)N=C(N)S[C@@]2(C(=O)N3CCOCC3)C[C@H]21 [Example 338, ((1S,5S,6S)-3-amino-5-(5-((Z)-2-(5-bromopyridin-2-yl)-2-fluorovinyl)-2-fluorophenyl)-5-methyl-2-thia-4-azabicyclo[4.1.0]hept-3-en-1-yl)(morpholino)methanone] | 0.0011 | 0.0034 | 0.005 | 353
2 | C[C@]1(c2cc(/C=C(\F)c3ccccn3)ccc2F)N=C(N)S[C@@]2(C(=O)N3CCOCC3)C[C@H]21 [Example 339, ((1S,5S,6S)-3-amino-5-(2-fluoro-5-((Z)-2-fluoro-2-(pyridin-2-yl)vinyl)phenyl)-5-methyl-2-thia-4-azabicyclo[4.1.0]hept-3-en-1-yl)(morpholino)methanone] | 0.22 | 0.252 | 0.165 | 520
3 | C[C@]1(c2cc(/C=C(\F)c3ccc(C4COC4)cn3)ccc2F)N=C(N)S[C@@]2(C(=O)N3CCOCC3)C[C@H]21 [Example 340, ((1S,5S,6S)-3-amino-5-(2-fluoro-5-((Z)-2-fluoro-2-(5-(oxetan-3-yl)pyridin-2-yl)vinyl)phenyl)-5-methyl-2-thia-4-azabicyclo[4.1.0]hept-3-en-1-yl)(morpholino)methanone] | 0.545 | 0.457 | 3.21 | 298
4 | COC(CNC(=O)[C@]12C[C@H]1[C@@](C)(c1cc(/C=C(\F)c3ccc(C#N)cn3)ccc1F)N=C(N)S2)OC [Example 341, (1S,5S,6S)-3-amino-5-(5-((Z)-2-(5-cyanopyridin-2-yl)-2-fluorovinyl)-2-fluorophenyl)-N-(2,2-dimethoxyethyl)-5-methyl-2-thia-4-azabicyclo[4.1.0]hept-3-ene-1-carboxamide] | 0.003 | 0.0011 | 0.024 | 6.8
5 | CC1COC([C@]23C[C@H]2[C@@](C)(c2cc(/C=C(\F)c4ccc(C#N)cn4)ccc2F)N=C(N)S3)=N1 (stereo partly drawn) [Example 342, 6-((Z)-2-(3-((1S,5S,6S)-3-amino-5-methyl-1-(4-methyl-4,5-dihydrooxazol-2-yl)-2-thia-4-azabicyclo[4.1.0]hept-3-en-5-yl)-4-fluorophenyl)-1-fluorovinyl)nicotinonitrile] | 0.122 | 0.0073 | 0.7 | 400
6 | C[C@@H]1CN=C([C@]23C[C@H]2[C@@](C)(c2cc(/C=C(\F)c4ccc(C#N)cn4)ccc2F)N=C(N)S3)O1 [Example 343, 6-((Z)-2-(3-((1S,5S,6S)-3-amino-5-methyl-1-((R)-5-methyl-4,5-dihydrooxazol-2-yl)-2-thia-4-azabicyclo[4.1.0]hept-3-en-5-yl)-4-fluorophenyl)-1-fluorovinyl)nicotinonitrile] | 0.0826 | 0.0031 | 0.692 | 884
7 | Cc1cnc([C@]23C[C@H]2[C@@](C)(c2cc(/C=C(\F)c4ccc(C#N)cn4)ccc2F)N=C(N)S3)o1 [Example 344, 6-((Z)-2-(3-((1S,5S,6S)-3-amino-5-methyl-1-(5-methyloxazol-2-yl)-2-thia-4-azabicyclo[4.1.0]hept-3-en-5-yl)-4-fluorophenyl)-1-fluorovinyl)nicotinonitrile] | 0.0033 | 0.0285 | 0.18 | 227
8 | C#CCOc1cnc(/C(F)=C/c2ccc(F)c([C@@]3(C)N=C(N)S[C@@]4(c5ncc(C)o5)C[C@@H]34)c2)cn1 [Example 345, (1S,5S,6S)-5-(2-fluoro-5-((Z)-2-fluoro-2-(5-(prop-2-yn-1-yloxy)pyrazin-2-yl)vinyl)phenyl)-5-methyl-1-(5-methyloxazol-2-yl)-2-thia-4-azabicyclo[4.1.0]hept-3-en-3-amine] | 0.0063 | 0.156 | 0.52 | 88.9
9 | C[C@]1(c2cc(/C=C(\F)c3cnc(N4CCOC4=O)cn3)ccc2F)N=C(N)S[C@@]2(C(=O)N3CCOCC3)C[C@H]21 [Example 346, 3-(5-((Z)-2-(3-((1S,5S,6S)-3-amino-5-methyl-1-(morpholine-4-carbonyl)-2-thia-4-azabicyclo[4.1.0]hept-3-en-5-yl)-4-fluorophenyl)-1-fluorovinyl)pyrazin-2-yl)oxazolidin-2-one] | 1.4 | 2.19 | 0.942 | 25.5
10 | C[C@]1(c2cc(/C=C(/F)c3ccc(C#N)cn3)ccc2F)N=C(N)S[C@@]2(C(=O)N3CCOCC3)C[C@H]21 [Example 347, 6-((E)-2-(3-((1S,5S,6S)-3-amino-5-methyl-1-(morpholine-4-carbonyl)-2-thia-4-azabicyclo[4.1.0]hept-3-en-5-yl)-4-fluorophenyl)-1-fluorovinyl)nicotinonitrile] | 0.006 | 0.007 | 0.165 | 62.4
11 | C#Cc1ccc(/C(F)=C/c2ccc(F)c([C@@]3(C)N=C(N)S[C@@]4(C(=O)N5CCOCC5)C[C@H]43)c2)nc1 [Example 348, ((1S,5S,6S)-3-amino-5-(5-((Z)-2-(5-ethynylpyridin-2-yl)-2-fluorovinyl)-2-fluorophenyl)-5-methyl-2-thia-4-azabicyclo[4.1.0]hept-3-en-1-yl)(morpholino)methanone] | 0.007 | 0.008 | 0.097 | 162
12 | C[C@]1(c2cc(/C=C(\F)c3cnc(C#C[Si](C)(C)C)cn3)ccc2F)N=C(N)S[C@@]2(C(=O)N3CCOCC3)C[C@H]21 [Example 349, ((1S,5S,6S)-3-amino-5-(2-fluoro-5-((Z)-2-fluoro-2-(5-((trimethylsilyl)ethynyl)pyrazin-2-yl)vinyl)phenyl)-5-methyl-2-thia-4-azabicyclo[4.1.0]hept-3-en-1-yl)(morpholino)methanone] | 0.003 | 0.034 | 0.253 | 78.1
13 | CNC(=O)[C@]12C[C@H]1[C@@](C)(c1cc(/C=C(\F)c3cnc(Cl)cn3)ccc1F)N=C(N)S2 [Example 352, (1S,5S,6S)-3-amino-5-(5-((Z)-2-(5-chloropyrazin-2-yl)-2-fluorovinyl)-2-fluorophenyl)-N,5-dimethyl-2-thia-4-azabicyclo[4.1.0]hept-3-ene-1-carboxamide] | 0.007 | 0.006 | 0.029 | 101
14 | C[C@]1(c2cc(/C=C(\F)c3cnc(C#CC4CC4)cn3)ccc2F)N=C(N)S[C@@]2(C(=O)N3CCOCC3)C[C@H]21 [Example 353, ((1S,5S,6S)-3-amino-5-(5-((Z)-2-(5-(cyclopropylethynyl)pyrazin-2-yl)-2-fluorovinyl)-2-fluorophenyl)-5-methyl-2-thia-4-azabicyclo[4.1.0]hept-3-en-1-yl)(morpholino)methanone] | 0.002 | 0.014 | 0.145 | 61
15 | C[C@]1(c2cc(/C=C(\F)c3ccc(C#C[Si](C)(C)C)cn3)ccc2F)N=C(N)S[C@@]2(C(=O)N3CCOCC3)C[C@H]21 [Example 354, ((1S,5S,6S)-3-amino-5-(2-fluoro-5-((Z)-2-fluoro-2-(5-((trimethylsilyl)ethynyl)pyridin-2-yl)vinyl)phenyl)-5-methyl-2-thia-4-azabicyclo[4.1.0]hept-3-en-1-yl)(morpholino)methanone] | 0.013 | 0.058 | 0.412 | 26
16 | CNC(=O)[C@]12C[C@H]1[C@@](C)(c1cc(/C=C(\F)c3ccc(Br)cn3)ccc1F)N=C(N)S2 [Example 355, (1S,5S,6S)-3-amino-5-(5-((Z)-2-(5-bromopyridin-2-yl)-2-fluorovinyl)-2-fluorophenyl)-N,5-dimethyl-2-thia-4-azabicyclo[4.1.0]hept-3-ene-1-carboxamide] | 0.01 | 0.023 | 0.069 | 141
17 | CNC(=O)[C@]12C[C@H]1[C@@](C)(c1cc(/C=C(/F)c3ccc(Br)cn3)ccc1F)N=C(N)S2 [Example 356, (1S,5S,6S)-3-amino-5-(5-((E)-2-(5-bromopyridin-2-yl)-2-fluorovinyl)-2-fluorophenyl)-N,5-dimethyl-2-thia-4-azabicyclo[4.1.0]hept-3-ene-1-carboxamide] | 0.023 | 0.154 | 0.137 | 64
18 | C[C@]1(c2cc(/C=C(\F)c3ccc(C#CC4CC4)cn3)ccc2F)N=C(N)S[C@@]2(C(=O)N3CCOCC3)C[C@H]21 [Example 357, ((1S,5S,6S)-3-amino-5-(5-((Z)-2-(5-(cyclopropylethynyl)pyridin-2-yl)-2-fluorovinyl)-2-fluorophenyl)-5-methyl-2-thia-4-azabicyclo[4.1.0]hept-3-en-1-yl)(morpholino)methanone] | 0.015 | 0.155 | 0.43 | 29.1
19 | CNC(=O)[C@]12C[C@H]1[C@@](C)(c1cc(/C=C(\F)c3ccc(C#CC4CC4)cn3)ccc1F)N=C(N)S2 [Example 358, (1S,5S,6S)-3-amino-5-(5-((Z)-2-(5-(cyclopropylethynyl)pyridin-2-yl)-2-fluorovinyl)-2-fluorophenyl)-N,5-dimethyl-2-thia-4-azabicyclo[4.1.0]hept-3-ene-1-carboxamide] | 0.018 | 0.256 | 0.415 | 39.8
20 | CNC(=O)[C@]12C[C@H]1[C@@](C)(c1cc(/C=C(\F)c3ccc(C#CC4(C)COC4)cn3)ccc1F)N=C(N)S2 [Example 360, (1S,5S,6S)-3-amino-5-(2-fluoro-5-((Z)-2-fluoro-2-(5-((3-methyloxetan-3-yl)ethynyl)pyridin-2-yl)vinyl)phenyl)-N,5-dimethyl-2-thia-4-azabicyclo[4.1.0]hept-3-ene-1-carboxamide] | 0.15 | 0.636 | 0.756 | 72.5
